[5FU] = 5-fluorouracil base replacing uracil
How the values were obtained:
SW480 colon cancer cells = assay: WST-1 cell proliferation assay, SW480; format: cell-based, human; conditions: SW480, in words, vs controls
Method: For transfections, 1×10^5 cells were plated in six-well plates and transfected with 100 nM of control non-specific miRNA (Thermo Fischer), a modified microRNA, or exogenous native microRNA after 24 hours using Oligofectamine (Thermo Fischer) following the manufacturer's protocols. For reagent free transfection, cells were plated in 6 well plates at (1×10^5) cells per well. Twenty-four hours later 100 pmol miRNA (Control, miR-15a, Mimic-1) were diluted in Optimem (Thermo Fischer) and added to the plate. Media was changed after 24 hours. Media was supplemented with 10% fetal bovine serum (Thermo Fischer). Briefly, cells were cultured in growth media (DMEM/F12 supplemented with B27, 10 ng/mL bFGF, and 20 ng/mL EGF (Life Technologies) in ultra-low attachment flasks) for up to 6 days. […]
Cell proliferation assay: Twenty-four hours after transfection, cells were seeded in 96-well plates at a density of 2000 cells per well. The cell proliferation assay was performed on days 1 to 5 by incubating 10 μl WST-1 (Roche Applied Science, Mannheim, Germany) in the culture medium for 1 h and reading the absorbance at 450 and 630 nm. The cell proliferation rate was calculated by subtracting the absorbance at 450 nm from the absorbance at 630 nm. […] The O.D. was calculated by subtracting the absorbance at 630 nm from that at 450 nm. […]

[1] = tested on: HCT116, RKO, SW480, and SW620 colon cancer cells; assay: FITC-Annexin V apoptosis assay; design: species or system human; conditions: FACS-based FITC-Annexin assay, all 4 colon cancer cell lines, compared to native miR-129 and negative control miRNA
Method: Apoptosis Assay. To distinguish between early and late apoptosis, a fluorescein isothiocyanate (FITC)—Annexin assay was done (Becton Dickinson). HCT116, RKO, SW480 and SW620 cells were plated into 6 well plates (1×10^5) cells per well, after 24 h, cells were transfected with 25 nM modified miRNAs using Oligofectamine. Forty-eight hours after transfection, cells were harvested, stained with propidium iodide and anti-annexin-V antibody (Annexin V-FITC Apoptosis Detection kit, Invitrogen, CA, USA) following the manufacturer's protocol, and stained cells were detected by flow cytometry.

[2] = tested on: HCT116 derived colon cancer stem cells; format: cell-based
Method: For transfections, 1×10^5 cells were plated in six-well plates and transfected with 100 nM of control non-specific miRNA (Thermo Fischer), a modified microRNA, or exogenous native microRNA after 24 hours using Oligofectamine (Thermo Fischer) following the manufacturer's protocols. For reagent free transfection, cells were plated in 6 well plates at (1×10^5) cells per well. Twenty-four hours later 100 pmol miRNA (Control, miR-15a, Mimic-1) were diluted in Optimem (Thermo Fischer) and added to the plate. Media was changed after 24 hours. Media was supplemented with 10% fetal bovine serum (Thermo Fischer). Briefly, cells were cultured in growth media (DMEM/F12 supplemented with B27, 10 ng/mL bFGF, and 20 ng/mL EGF (Life Technologies) in ultra-low attachment flasks) for up to 6 days. The spheroid cells were maintained by collection through gentle centrifugation, dissociation to single cells and replating.
miR-129 mimics eliminated chemotherapy resistant colon cancer stem cells. To determine the impact of certain exemplary modified microRNAs of the present disclosure (i.e., miR-129 mimics) on 5-FU resistant colon cancer stem cells, HCT116 derived colon cancer stem cells were treated with various concentrations of Mimic-1 or 5-FU.

[3] = tested on: colorectal cancer stem cell xenograft; assay: Colorectal cancer stem cell mouse xenograft model; format: in vivo; conditions: cells pre transfected, eight weeks after injection, n=8
Method: Mouse subcutaneous tumor implantation model: Two days before injection, HCT116 colorectal cancer stem cells or MDA-MB-231 breast cancer cells were plated at 5×10^5/well in a 6-well ultra low attachment plate. 20 μL of the virus or 100 pmole exemplary modified miR-129 or modified miR-15a were used to transduce or transfect cells. Forty-eight hours later, cells were collected and re-suspended at 10^6/ml in DMEM/F12 knockout media with 30% matrigel. Ten-twelve week-old NOD/SCID mice (Jackson Laboratories, Bar Harbor, […], USA) were used for tumor implantation. The mice were anesthetized by isoflurane inhalation. 100 μL of cell suspension was injected subcutaneously into both sides of the lower back area. The tumor size was measured using a caliper, and tumor volume was calculated using the formula V=length×width^2/2.
Modified miR-15a inhibits cancer development and progression in vivo. A colorectal cancer stem cell mouse xenograft model was established that included colorectal cancer cells that have been either pre transfected with modified miR-15a or negative control miRNA. Eight weeks after injection, tumors were measured and harvested.

| Substance | inhibition of colon cancer cell proliferation (SW480 colon cancer cells) | induction of apoptosis [1] [fold] | proliferation of HCT116 colon cancer stem cells ([2]; 25 nM, day 6) | elimination of 5-FU resistant colon cancer stem cells ([2]; 100 nM) | killing of 5-FU resistant cancer stem cells, dose dependence ([2]; increasing concentrations, FIG. 6) | reduction in tumor size [3] [×] |
| --- | --- | --- | --- | --- | --- | --- |
| CU^FU^FU^FU^FU^FGCGGU^FCU^FGGGCU^FU^FGC (CUUUUUGCGGUCUGGGCUUGC; RNA, [5FU] at 2, 3, 4, 5, 6, 11, 13, 18, 19, backbone not given here) [modified miR-129] | inhibition of colon cancer cell proliferation | 2 to 30 | nearly completely blocked | over 80% | killed 5-FU resistance cancer stem cells in a dose dependent manner | – |
| U^FAGCAGCACAU^FAAU^FGGU^FU^FU^FGU^FG (UAGCAGCACAUAAUGGUUUGUG; RNA, [5FU] at 1, 11, 14, 17, 18, 19, 21, backbone not given here) [modified miR-15a] | – | – | – | – | – | > 25 |

Reference: US12319913B2, “5-halouracil-modified microRNAs and their use in the treatment of cancer” (The Research Foundation for The State University of New York, priority 2018, dated 2025)
